Test results taken from ChEMBL document CHEMBL3272241, “Synthesis and antiprotozoal activity of 2,5-bis(4-guanylphenyl)thiophenes and -pyrroles” (J Med Chem, 1977).
Active and inactive are the calls of the source. No cut-off for these calls is given here.

Key:
[1] = tested on: Trypanosoma brucei rhodesiense; experiment: Antitrypanosomal activity against Trypanosoma rhodesiense infected in mouse assessed as increase in survival time by 30 days at 2.5 mg/kg relative to control; type: functional
Plasmodium berghei = experiment: Antimalarial activity against Plasmodium berghei infected in mouse; type: functional, organism-based
[2] = tested on: Trypanosoma brucei rhodesiense; experiment: Antitrypanosomal activity against Trypanosoma rhodesiense infected in mouse assessed as increase in survival time by 30 days at 5 mg/kg relative to control; type: functional
[3] = tested on: Trypanosoma brucei rhodesiense; experiment: Antitrypanosomal activity against Trypanosoma rhodesiense infected in mouse assessed as increase in survival time by 30 days at 10 mg/kg relative to control; type: functional
[4] = tested on: Trypanosoma brucei rhodesiense; experiment: Antitrypanosomal activity against Trypanosoma rhodesiense infected in mouse assessed as increase in survival time by 30 days at 20 mg/kg relative to control; type: functional
[5] = tested on: Trypanosoma brucei rhodesiense; experiment: Antitrypanosomal activity against Trypanosoma rhodesiense infected in mouse assessed as increase in survival time by 30 days at 40 mg/kg relative to control; type: functional
[6] = tested on: Trypanosoma brucei rhodesiense; experiment: Antitrypanosomal activity against Trypanosoma rhodesiense infected in mouse assessed as increase in survival time by 30 days at 80 mg/kg relative to control; type: functional
[7] = tested on: Trypanosoma brucei rhodesiense; experiment: Antitrypanosomal activity against Trypanosoma rhodesiense infected in mouse assessed as increase in survival time by 30 days at 160 mg/kg relative to control; type: functional
[8] = tested on: Trypanosoma brucei rhodesiense; experiment: Antitrypanosomal activity against Trypanosoma rhodesiense infected in mouse assessed as increase in survival time by 30 days at 320 mg/kg relative to control; type: functional
[9] = tested on: Trypanosoma brucei rhodesiense; experiment: Antitrypanosomal activity against Trypanosoma rhodesiense infected in mouse assessed as increase in survival time by 30 days at 640 mg/kg relative to control; type: functional
[10] = tested on: Trypanosoma brucei rhodesiense; experiment: Antitrypanosomal activity against Trypanosoma rhodesiense infected in mouse assessed as increase in mean survival time at 20 mg/kg relative to control; type: functional
[11] = tested on: Trypanosoma brucei rhodesiense; experiment: Antitrypanosomal activity against Trypanosoma rhodesiense infected in mouse assessed as increase in mean survival time at 40 mg/kg relative to control; type: functional
[12] = tested on: Trypanosoma brucei rhodesiense; experiment: Antitrypanosomal activity against Trypanosoma rhodesiense infected in mouse assessed as increase in mean survival time at 80 mg/kg relative to control; type: functional
Mus musculus [13] = experiment: Acute toxicity in mouse infected with Trypanosoma rhodesiense assessed as death at 320 mg/kg; type: organism-based; design: dose 320 mg/kg; details: in vivo
Mus musculus [14] = experiment: Acute toxicity in mouse infected with Trypanosoma rhodesiense assessed as death at 640 mg/kg; type: organism-based; design: dose 640 mg/kg; details: in vivo
[15] = tested on: Trypanosoma brucei rhodesiense; experiment: Antitrypanosomal activity against Trypanosoma rhodesiense infected in mouse assessed as increase in mean survival time at 160 mg/kg relative to control; type: functional

Row | Structure (SMILES) | MST [1] | Activity (Plasmodium berghei) | MST [2] | MST [3] | MST [4] | MST [5] | MST [6] | MST [7] | MST [8] | MST [9] | MST [10] | MST [11] | MST [12] | Activity (Mus musculus [13]) | Activity (Mus musculus [14]) | MST [15]
1 | Cn1c(-c2ccc([C+](N)N)cc2)ccc1-c1ccc([C+](N)N)cc1.[Cl-].[Cl-] | 2 days | inactive | 4 days | 5 days | 5 days | 5 days | 5 days | 5 days | 5 days |  |  |  |  |  |  | 
2 | N=C(N)c1ccc(/C=C/c2ccc(C(=N)N)cc2)cc1 [STILBAMIDINE] | 5 days |  | 5 days | 5 days | 5 days | 5 days | 5 days | 5 days | 5 days | 5 days |  |  |  |  |  | 
3 | CC1CN[C+](c2ccc(-c3ccc(-c4ccc([C+]5NCC(C)N5)cc4)s3)cc2)N1.[Cl-].[Cl-] (stereo not drawn) |  | inactive |  |  |  |  |  | 2 days | 4 days | 4 days | 1 days | 1.2 days | 3 days |  |  | 
4 | Cn1c(-c2ccc([C+]3NCCCN3)cc2)ccc1-c1ccc([C+]2NCCCN2)cc1.[Cl-].[Cl-] |  | inactive |  | 2 days | 3 days | 5 days | 5 days | 3 days |  |  |  |  |  | Toxic | Toxic | 
5 | N=C(N)c1ccc(-c2ccc(-c3ccc(C(=N)N)cc3)o2)cc1 [FURAMIDINE] | 4 days |  | 5 days | 5 days | 5 days | 5 days | 5 days | 5 days | 5 days | 5 days |  |  |  |  |  | 
6 | Cl.Cl.N=C(N)c1ccc(-c2ccc(-c3ccc(C(=N)N)cc3)s2)cc1 | 3 days | inactive | 4 days | 5 days | 5 days | 5 days | 5 days | 5 days |  |  |  |  |  |  |  | 
7 | CC1CN[C+](c2ccc(-c3ccc(-c4ccc([C+]5NCC(C)N5)cc4)n3C)cc2)N1.[Cl-].[Cl-] (stereo not drawn) |  | inactive |  |  | 3 days | 4 days | 5 days | 5 days | 5 days | 5 days |  |  |  |  |  | 
8 | [Cl-].[Cl-].c1cc([C+]2NCCN2)ccc1-c1ccc(-c2ccc([C+]3NCCN3)cc2)s1 |  | inactive |  |  |  |  |  |  | 2 days | 3 days |  |  |  |  |  | 1.6 days
9 | N=C(N)c1ccc(/C=C/c2ccc(C(=N)N)cc2O)cc1 [HYDROXYSTILBAMIDINE] | 5 days |  | 5 days | 5 days | 5 days | 5 days | 5 days | 5 days | 5 days | 5 days |  |  |  |  |  | 
10 | [Cl-].[Cl-].c1cc([C+]2NCCCN2)ccc1-c1ccc(-c2ccc([C+]3NCCCN3)cc2)s1 |  | inactive |  | 2 days | 3 days | 4 days | 4 days | 4 days | 5 days | 5 days |  |  |  |  |  | 
11 | N=C(N)c1ccc(OCCCCCOc2ccc(C(=N)N)cc2)cc1 [PENTAMIDINE] | 4 days |  | 5 days | 5 days | 5 days | 5 days | 5 days | 5 days | 5 days | 5 days |  |  |  |  |  | 
12 | Cn1c(-c2ccc([C+]3NCCN3)cc2)ccc1-c1ccc([C+]2NCCN2)cc1.[Cl-].[Cl-] |  | inactive |  | 2 days | 3 days | 4 days | 4 days | 5 days |  |  |  |  |  |  |  | 
